Assay results from patent publication US11028079B2 (ConverGene LLC, priority 2015, dated 2021).

target: T1, BRD4 bromodomains (Homo sapiens, UniProt O60885); experiment: BROMOscan bromodomain competition binding assay (DiscoveRx); conditions: Kd from 11 compound concentrations ranging from 0 to 10 μM, read-out: BROMOscan Relative Activity
T1 construct: fused on or other part: T7 phage capsid protein (phage-display fusion; the phage DNA is read out by qPCR)
Summary of the method: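 Compounds in 0.1% DMSO/0.9% MEG competed with a solid-phase acetylated peptide for T7 phage-fused BRD4 bromodomains, with the retained bromodomain measured by qPCR.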

Q: Which Kd does the source give for `Cn1cc(-c2ccc3nc(N4CCN(C(=O)CO)CC4)nc(NCc4cccc(Cl)c4)c3c2)ccc1=O` [Example 106, 5-(4-((3-chlorobenzyl)amino)-2-(4-(2-hydroxyacetyl)piperazin-1-yl)quinazolin-6-yl)-1-methylpyridin-2(1H)-one] here?
A: The Kd was < 500 nM.

Q: With `Cc1noc(C)c1-c1ccc2nc(C(=O)Nc3cnn(C)c3)nc(NCc3cccc(Cl)c3)c2c1` [Example 225, 4-((3-chlorobenzyl)amino)-6-(3,5-dimethylisoxazol-4-yl)-N-(1-methyl-1H-pyrazol-4-yl)quinazoline-2-carboxamide] as the molecule, how does the Kd read?
A: The Kd was < 500 nM.

Q: Which Kd does the source give for `Cc1noc(C)c1-c1ccc2nc(-c3cnn(CC(C)(C)O)c3)nc(N3CCN(C(=O)NC4CC4)C[C@@H]3c3ccccc3)c2c1` [Example 322, (S)—N-cyclopropyl-4-(6-(3,5-dimethylisoxazol-4-yl)-2-(1-(2-hydroxy-2-methylpropyl)-1H-pyrazol-4-yl)quinazolin-4-yl)-3-phenylpiperazine-1-carboxamide] here?
A: Its Kd is < 500 nM.

Q: Which Kd does the source give for `CC(=O)N1CCN(c2nc(N3CCOC[C@@H]3c3ccccc3)c3cc(-c4c(C)noc4C)ccc3n2)CC1` [Example 294, (S)-1-(4-(6-(3,5-dimethylisoxazol-4-yl)-4-(3-phenylmorpholino)quinazolin-2-yl)piperazin-1-yl)ethan-1-one] here?
A: The Kd was < 500 nM.

Q: `Cc1noc(C)c1-c1ccc2nc(C(=O)NCc3cccnc3)nc(NCc3cccc(Cl)c3)c2c1` [Example 189, 4-((3-chlorobenzyl)amino)-6-(3,5-dimethylisoxazol-4-yl)-N-(pyridin-3-ylmethyl)quinazoline-2-carboxamide] was tested. Which Kd did it give?
A: The Kd was < 500 nM.

Q: How did the Kd turn out when `Cc1noc(C)c1-c1ccc2nc(N3CCc4[nH]ncc4C3)nc(N3CCOC[C@@H]3c3ccccc3)c2c1` [Example 282, (S)-4-(6-(3,5-dimethylisoxazol-4-yl)-2-(1,4,6,7-tetrahydro-5H-pyrazolo[4,3-c]pyridin-5-yl)quinazolin-4-yl)-3-phenylmorpholine] was run?
A: The Kd was < 500 nM.

Q: `Cc1noc(C)c1-c1ccc2nc(-c3cnn(CCO)c3)nc(NCc3cccc(Cl)c3)c2c1` [Example 48, 2-(4-(4-((3-chlorobenzyl)amino)-6-(3,5-dimethylisoxazol-4-yl)quinazolin-2-yl)-1H-pyrazol-1-yl)ethanol] was tested. Which Kd did it give?
A: Its Kd is < 500 nM.

Q: Which Kd does the source give for `Cc1noc(C)c1-c1ccc2nc(N3CCC4(CCN(C)C4=O)CC3)nc(N3CCOC[C@@H]3c3ccccc3)c2c1` [Example 320, (S)-8-(6-(3,5-dimethylisoxazol-4-yl)-4-(3-phenylmorpholino)quinazolin-2-yl)-2-methyl-2,8-diazaspiro[4.5]decan-1-one] here?
A: The Kd was < 500 nM.

Q: `Cc1ccncc1CNC(=O)c1nc(NCc2cccc(Cl)c2)c2cc(-c3c(C)noc3C)ccc2n1` [Example 187, 4-((3-chlorobenzyl)amino)-6-(3,5-dimethylisoxazol-4-yl)-N-((4-methylpyridin-3-yl)methyl)quinazoline-2-carboxamide] was tested. Which Kd did it give?
A: The Kd was < 500 nM.

Q: For `Cc1noc(C)c1-c1ccc2nc(-c3cnn(C)c3)nc(NCc3cccc(Cl)c3)c2c1` [Example 49, N-(3-chlorobenzyl)-6-(3,5-dimethylisoxazol-4-yl)-2-(1-methyl-1H-pyrazol-4-yl)quinazolin-4-amine], which Kd is on record?
A: The Kd was < 500 nM.

Q: For `Cc1noc(C)c1-c1ccc2nc(N3CCC4(CCNC4=O)CC3)nc(N3CCOC[C@@H]3c3ccccc3)c2c1` [Example 329, (S)-8-(6-(3,5-dimethylisoxazol-4-yl)-4-(3-phenylmorpholino)quinazolin-2-yl)-2,8-diazaspiro[4.5]decan-1-one], which Kd is on record?
A: The Kd was < 500 nM.

Q: `CNC(=O)CN1CCN(c2nc(NCc3cccc(Cl)c3)c3cc(-c4ccc(=O)n(C)c4)ccc3n2)CC1` [Example 109, 2-(4-(4-((3-chlorobenzyl)amino)-6-(1-methyl-6-oxo-1,6-dihydropyridin-3-yl)quinazolin-2-yl)piperazin-1-yl)-N-methylacetamide] was tested. Which Kd did it give?
A: Its Kd is < 500 nM.

Q: `Cc1nn(C)c(C)c1CNC(=O)c1nc(NCc2cccc(Cl)c2)c2cc(-c3c(C)noc3C)ccc2n1` [Example 194, 4-((3-chlorobenzyl)amino)-6-(3,5-dimethylisoxazol-4-yl)-N-((1,3,5-trimethyl-1H-pyrazol-4-yl)methyl)quinazoline-2-carboxamide] was tested. Which Kd did it give?
A: Its Kd is < 500 nM.

Q: `Cc1noc(C)c1-c1ccc2nc(C(=O)NCc3ccncc3F)nc(NCc3cccc(Cl)c3)c2c1` [Example 215, 4-((3-chlorobenzyl)amino)-6-(3,5-dimethylisoxazol-4-yl)-N-((3-fluoropyridin-4-yl)methyl)quinazoline-2-carboxamide] was tested. Which Kd did it give?
A: The Kd was < 500 nM.

Q: For `Cc1noc(C)c1-c1ccc2nc(N3CCN(C)CC3)nc(NCc3cccc(Cl)c3)c2c1` [Example 6, N-(3-chlorobenzyl)-6-(3,5-dimethylisoxazol-4-yl)-2-(4-methylpiperazin-1-yl)quinazolin-4-amine], which Kd is on record?
A: The Kd was < 500 nM.
